Tests used:
HCT-116 [1] = experiment: Antiproliferative activity against human HCT-116 cells assessed as cell growth inhibition after 72 hrs by MTT assay; assay type: functional
A549 = experiment: Antiproliferative activity against human A549 cells assessed as cell growth inhibition after 72 hrs by MTT assay; assay type: functional
Acetylcholinesterase = Acetylcholinesterase (Electrophorus electricus, UniProt O42275); experiment: Inhibition of electric eel AChE using acetylthiocholine […] as substrate for 20 mins by Ellman's method
[2] = target: CDK9/cyclin T1 (Homo sapiens) (UniProt O60563+P50750); experiment: Inhibition of CDK9/CyclinT1 (unknown origin) at 500 nM by ADP-Glo kinase assay relative to control; assay type: protein-complex assay
[3] = target: CDK3/Cyclin E (Homo sapiens) (UniProt P24864+Q00526); experiment: Inhibition of CDK3/Cyclin E1 (unknown origin) at 500 nM by ADP-Glo kinase assay relative to control; assay type: protein-complex assay
[4] = target: Cyclin-dependent kinase 5/CDK5 activator 1 (Homo sapiens) (UniProt Q00535+Q15078); experiment: Inhibition of CDK5/p25 NCK (unknown origin) at 500 nM by ADP-Glo kinase assay relative to control; assay type: protein-complex assay
[5] = target: Cyclin-dependent kinase 4/cyclin D1 (Homo sapiens) (UniProt P11802+P24385); experiment: Inhibition of CDK4/Cyclin D1 (unknown origin) at 500 nM by ADP-Glo kinase assay relative to control; assay type: protein-complex assay
[6] = target: CDK4/Cyclin D3 (Homo sapiens) (UniProt P11802+P30281); experiment: Inhibition of CDK4/Cyclin D3 (unknown origin) at 500 nM by ADP-Glo kinase assay relative to control; assay type: protein-complex assay
[7] = target: CDK6/cyclin D3 (Homo sapiens) (UniProt P30281+Q00534); experiment: Inhibition of CDK6/Cyclin D3 (unknown origin) at 500 nM by ADP-Glo kinase assay relative to control; assay type: protein-complex assay
[8] = target: Cyclin-C/Cyclin-dependent kinase 19 (Homo sapiens) (UniProt Q9BWU1+P24863); experiment: Inhibition of CDK19/Cyclin C (unknown origin) at 500 nM by ADP-Glo kinase assay relative to control; assay type: protein-complex assay
HCT-116 [9] = experiment: Inhibition of cell migration in human HCT-116 cells after 48 hrs by Wound healing scratch assay; assay type: functional, cell-based; conditions: dose 2-18 nM
HCT-116 [10] = experiment: Inhibition of colony formation in human HCT-116 cells treated for 24 hrs followed by replaced with fresh culture media for 10 days by Colony formation assay; assay type: functional, cell-based; conditions: dose 2-18 nM
HCT-116 [11] = experiment: Induction of apoptosis in human HCT-116 cells assessed as early apoptotic cells at 10 nM measured after 48 hrs by Annexin V-FITC/PI assay (reference value: 3.16%); assay type: functional
HCT-116 [12] = experiment: Induction of apoptosis in human HCT-116 cells assessed as early apoptotic cells at 20 nM measured after 48 hrs by Annexin V-FITC/PI assay (reference value: 3.16%); assay type: functional
HCT-116 [13] = experiment: Induction of apoptosis in human HCT-116 cells assessed as late apoptotic cells at 20 nM measured after 48 hrs by Annexin V-FITC/PI assay (reference value: 6.06%); assay type: functional
HCT-116 [14] = experiment: Cell cycle arrest in human HCT-116 cells assessed as accumulation of cells at G0-G1 phase at 10 nM measured after 48 hrs by flow cytometry (reference value: 62.18%); assay type: functional
HCT-116 [15] = experiment: Cell cycle arrest in human HCT-116 cells assessed as accumulation of cells at S phase at 10 nM measured after 48 hrs by flow cytometry (reference value: 31.43%); assay type: functional
HCT-116 [16] = experiment: Cell cycle arrest in human HCT-116 cells assessed as accumulation of cells at […] phase at 10 nM measured after 48 hrs by flow cytometry (reference value: 6.39%); assay type: functional
HCT-116 [17] = experiment: Cell cycle arrest in human HCT-116 cells assessed as accumulation of cells at G0-G1 phase at 20 nM measured after 48 hrs by flow cytometry (reference value: 62.18%); assay type: functional
HCT-116 [18] = experiment: Cell cycle arrest in human HCT-116 cells assessed as accumulation of cells at S phase at 20 nM measured after 48 hrs by flow cytometry (reference value: 31.43%); assay type: functional
HCT-116 [19] = experiment: Cell cycle arrest in human HCT-116 cells assessed as accumulation of cells at […] phase at 20 nM measured after 48 hrs by flow cytometry (reference value: 6.39%); assay type: functional
[20] = Acute toxicity in po dosed Kunming mouse assessed as survival measured for 2 weeks; assay type: organism-based; conditions: in vivo
[21] = Acute toxicity in Kunming mouse assessed as survival at 20 mg/kg, po measured for 2 weeks; assay type: organism-based; conditions: in vivo
[22] = Acute toxicity in Kunming mouse assessed as survival at 30 mg/kg, po measured for 2 weeks; assay type: organism-based; conditions: in vivo
[23] = Acute toxicity in Kunming mouse assessed as survival at 46 mg/kg, po measured for 2 weeks; assay type: organism-based; conditions: in vivo
[24] = Acute toxicity in Kunming mouse assessed as survival at 69 mg/kg, po measured for 2 weeks; assay type: organism-based; conditions: in vivo
[25] = Acute toxicity in Kunming mouse assessed as survival at 105 mg/kg, po measured for 2 weeks; assay type: organism-based; conditions: in vivo
[26] = Acute toxicity in Kunming mouse assessed as survival at 159 mg/kg, po measured for 2 weeks; assay type: organism-based; conditions: in vivo
[27] = Acute toxicity in Kunming mouse assessed as body weight change at 20 to 105 mg/kg, po measured for 2 weeks; assay type: organism-based; conditions: in vivo, 336 h, dose 20-105 mg/kg
[28] = Tmax in Sprague-Dawley rat at 2 mg/kg, iv; assay type: ADME, organism-based; conditions: in vivo
[29] = Tmax in Sprague-Dawley rat at 20 mg/kg, po; assay type: ADME, organism-based; conditions: in vivo
[30] = Cmax in Sprague-Dawley rat at 2 mg/kg, iv; assay type: ADME, organism-based; parameters: dose 2 mg/kg, route iv; conditions: in vivo
[31] = AUC (0 to t) in Sprague-Dawley rat at 20 mg/kg, po; assay type: ADME, organism-based; parameters: dose 20 mg/kg, route po; conditions: in vivo
[32] = AUC (0 to infinity) in Sprague-Dawley rat at 2 mg/kg, iv; assay type: ADME, organism-based; parameters: dose 2 mg/kg, route iv; conditions: in vivo
[33] = AUC (0 to infinity) in Sprague-Dawley rat at 20 mg/kg, po; assay type: ADME, organism-based; parameters: dose 20 mg/kg, route po; conditions: in vivo
[34] = Clearance in Sprague-Dawley rat at 2 mg/kg, iv; assay type: ADME, organism-based; conditions: in vivo
HCT-116 [35] = experiment: Antitumor activity against human HCT-116 cells xenografted in BALB/cA-nu mouse tumor model assessed as tumor volume growth inhibition at 10 mg/kg, intragastric administration for 21 days relative to control; assay type: functional; conditions: HCT-116, 504 h, route ig, time 21 day, read-out: GI
[36] = Toxicity in BALB/cA-nu mouse xenografted with human HCT116 cells assessed as behavioral changes at 10 mg/kg, intragastric administration for 21 days; assay type: organism-based, HCT-116; conditions: in vivo, po, 504 h, time 21 day
[37] = Toxicity in BALB/cA-nu mouse xenografted with human HCT116 cells assessed as body weight changes at 10 mg/kg, intragastric administration for 21 days; assay type: organism-based, HCT-116; conditions: in vivo, po, 504 h, time 21 day
[38] = Toxicity in BALB/cA-nu mouse xenografted with human HCT116 cells assessed as liver injury by measuring ALT level at 10 mg/kg, intragastric administration for 21 days; assay type: organism-based, HCT-116; conditions: in vivo, po, 504 h, time 21 day
[39] = Toxicity in BALB/cA-nu mouse xenografted with human HCT116 cells assessed as liver injury by measuring AST level at 10 mg/kg, intragastric administration for 21 days; assay type: organism-based, HCT-116; conditions: in vivo, po, 504 h, time 21 day

Chain of Cyclin-dependent kinase 5/CDK5 activator 1 (Homo sapiens) (Q00535 whole entry): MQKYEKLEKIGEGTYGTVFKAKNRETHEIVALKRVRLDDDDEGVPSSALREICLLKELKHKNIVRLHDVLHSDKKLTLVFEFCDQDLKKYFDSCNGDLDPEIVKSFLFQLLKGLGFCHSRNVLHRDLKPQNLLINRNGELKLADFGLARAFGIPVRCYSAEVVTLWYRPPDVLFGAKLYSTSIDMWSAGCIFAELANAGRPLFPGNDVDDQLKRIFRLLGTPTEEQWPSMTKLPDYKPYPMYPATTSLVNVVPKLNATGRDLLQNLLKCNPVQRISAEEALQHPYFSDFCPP
Chain of Cyclin-dependent kinase 5/CDK5 activator 1 (Homo sapiens) (Q15078 99-307 partner limits assumed): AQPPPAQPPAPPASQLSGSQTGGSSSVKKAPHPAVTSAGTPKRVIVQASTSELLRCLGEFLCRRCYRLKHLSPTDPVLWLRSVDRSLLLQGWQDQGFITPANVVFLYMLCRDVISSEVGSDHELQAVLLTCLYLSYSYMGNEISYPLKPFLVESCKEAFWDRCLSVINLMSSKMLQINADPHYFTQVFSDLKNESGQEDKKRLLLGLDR
Chain of Acetylcholinesterase (O42275 whole entry): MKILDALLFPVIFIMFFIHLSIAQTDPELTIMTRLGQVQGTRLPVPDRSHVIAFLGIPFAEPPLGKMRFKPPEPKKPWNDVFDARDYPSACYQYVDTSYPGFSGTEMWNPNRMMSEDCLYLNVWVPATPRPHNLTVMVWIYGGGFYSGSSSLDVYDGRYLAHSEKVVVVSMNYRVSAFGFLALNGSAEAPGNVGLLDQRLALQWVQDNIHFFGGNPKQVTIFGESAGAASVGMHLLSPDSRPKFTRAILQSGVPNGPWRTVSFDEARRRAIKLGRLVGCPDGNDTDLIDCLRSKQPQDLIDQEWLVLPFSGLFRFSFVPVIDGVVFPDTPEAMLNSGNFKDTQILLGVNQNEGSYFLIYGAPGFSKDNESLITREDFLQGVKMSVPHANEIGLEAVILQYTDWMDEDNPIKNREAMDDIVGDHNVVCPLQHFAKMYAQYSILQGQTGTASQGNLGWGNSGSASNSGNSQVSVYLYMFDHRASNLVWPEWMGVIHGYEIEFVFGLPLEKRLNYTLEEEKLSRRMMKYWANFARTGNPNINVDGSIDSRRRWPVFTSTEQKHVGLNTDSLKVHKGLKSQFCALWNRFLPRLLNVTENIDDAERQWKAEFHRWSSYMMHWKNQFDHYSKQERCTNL
Chain of CDK3/Cyclin E (Homo sapiens) (P24864 whole entry, looked up): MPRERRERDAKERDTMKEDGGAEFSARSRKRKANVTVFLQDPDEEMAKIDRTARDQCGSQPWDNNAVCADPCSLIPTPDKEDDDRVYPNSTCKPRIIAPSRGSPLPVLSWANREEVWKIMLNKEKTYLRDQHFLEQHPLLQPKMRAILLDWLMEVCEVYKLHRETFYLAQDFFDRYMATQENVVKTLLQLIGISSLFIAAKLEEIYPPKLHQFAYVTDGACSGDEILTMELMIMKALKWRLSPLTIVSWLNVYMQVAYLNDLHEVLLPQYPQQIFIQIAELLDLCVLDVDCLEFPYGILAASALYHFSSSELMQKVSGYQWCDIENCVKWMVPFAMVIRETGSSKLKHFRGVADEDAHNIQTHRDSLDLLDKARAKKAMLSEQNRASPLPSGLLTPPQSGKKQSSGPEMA
Chain of CDK3/Cyclin E (Homo sapiens) (Q00526 whole entry, looked up): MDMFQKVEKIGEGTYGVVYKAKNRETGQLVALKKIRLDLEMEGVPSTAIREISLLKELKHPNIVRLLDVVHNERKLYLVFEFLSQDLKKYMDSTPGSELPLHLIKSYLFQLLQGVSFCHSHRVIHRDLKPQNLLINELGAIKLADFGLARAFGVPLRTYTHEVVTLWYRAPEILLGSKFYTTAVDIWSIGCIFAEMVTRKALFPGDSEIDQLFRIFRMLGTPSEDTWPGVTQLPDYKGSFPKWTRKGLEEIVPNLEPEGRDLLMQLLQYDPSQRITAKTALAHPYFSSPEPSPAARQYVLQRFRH

Compound: Cl.N[C@H]1CCN(c2c3c(nc4ccc(-c5ccnc(NC(=O)C6CC6)n5)cc24)CCCCC3)C1
- GI50 (HCT-116 [1]): 6 nM
- GI50 (A549): 9 nM
- IC50 (Acetylcholinesterase): 19000 nM
- inhibition [2]: 99.8%
- inhibition [3]: 65.5%
- inhibition [4]: 64.5%
- inhibition [5]: 31.6%
- inhibition [6]: 29.4%
- inhibition [7]: 16.6%
- inhibition [8]: 12.9%
- inhibition (HCT-116 [9]): Dose-Dependent Effect
- inhibition (HCT-116 [10]): Dose-Dependent Effect
- Activity (HCT-116 [11]): 16.3%
- Activity (HCT-116 [12]): 32.6%
- Activity (HCT-116 [13]): 13.6%
- Activity (HCT-116 [14]): 46.65%
- Activity (HCT-116 [15]): 42.75%
- Activity (HCT-116 [16]): 10.6%
- Activity (HCT-116 [17]): 37.51%
- Activity (HCT-116 [18]): 49.38%
- Activity (HCT-116 [19]): 13.11%
- LD50 at 336 h [20]: 104 mg/kg
- survival at 336 h [21]: 100%
- survival at 336 h [22]: 100%
- survival at 336 h [23]: 100%
- survival at 336 h [24]: 100%
- survival at 336 h [25]: 50%
- survival at 336 h [26]: 0%
- Activity [27]: Non-Toxic
- Tmax [28]: 4.98 min
- Tmax [29]: 60 min
- Cmax [30]: 206 ng/mL
- AUC(0-t) [31]: 302 ng·h/mL
- AUC(0-inf) [32]: 115 ng·h/mL
- AUC(0-inf) [33]: 316 ng·h/mL
- clearance [34]: 312 mL/min/kg
- inhibition in vivo at 10 mg/kg (HCT-116 [35]): 47.7%
- Activity [36]: Non-Toxic
- Activity [37]: Non-Toxic
- Activity [38]: Non-Toxic
- Activity [39]: Non-Toxic

— ChEMBL document CHEMBL5352406 (Eur J Med Chem, 2022)
